{"source": "patent EP4796125A1", "about": "“TREATMENT OF PATIENT WITH NEGATIVE P53 GENE MUTATION, POSITIVE KRAS GENE MUTATION AND POSITIVE BRCA MUTATION” (Ascentawits Pharmaceuticals, Ltd., priority 2023, dated 2025)", "key": {"[1]": {"test_system": "γH2AX protein in H460 cells", "test": "WB detection of γH2AX protein (DNA double-strand damage)", "type": "cell-based", "settings": "AST-3424 alone or with 5 µM Nutlin-3, dose-dependent (Figures 24-26)", "description": "In the first experiment, the second experiment and the third experiment about the effect of the combination of AST-3424 and Nutlin-3 on Ser15-p53, Ser20-p53, Total p53, MDM2, and p21 proteins in H460 cells in Example 21, the applicant also performed WB detection of γH2AX protein."}, "H460 P53 KO #7": {"test_system": "H460 P53 KO #7", "test": "In vitro proliferation under normoxia (CTG, 72 hours), Example 26", "type": "cell-based, human", "settings": "Table 21", "experimental": "(§1) • 1) H460 cell suspension was added to a 96-well plate (100 µL per well), with a cell density of 2000 cells/well. • 2) The cells were cultured overnight in a 37°C, 5% CO2 incubator. • 3) Compound Treatment\n(§2) Monotherapy: 24 hours after cell plating, each well was supplemented with 99.5 µL of growth medium. Then, 0.5 µL of test compounds at different concentrations was added. The plate was gently shaken to ensure even mixing, and then placed in a 37°C, 5% CO2 incubator.\n(§3) Combination therapy: 24 hours after cell plating, each well was supplemented with 99 µL of growth medium. Then, 0.5 µL of the combination compound Nutlin-3 was added. The plate was gently shaken to ensure even mixing, and then placed in an incubator for 2 hours. Then, 0.5 µL of test compounds at different concentrations was added. The plate was gently shaken to ensure even mixing, and then placed in a 37°C, 5% CO2 incubator. • 4) The cell plate was placed in the incubator for 72 hours. • 5) The cell plate to be tested was placed at room temperature and equilibrated for 30 minutes, and 100 µL of medium was discarded from each well. • 6) 25 µL of CTG reagent was added to each well, placed on a fast shaker to shake for 2 minutes, and placed at room temperature for 30 minutes (protected from light). • 7) The chemiluminescence signal value was read using a multifunctional microplate reader with a reading time of 1000 ms. • 8) IC50 values were calculated using Graph Pad Prism 5 software.\n(§4) The p53 CRISPR/Cas9 KO plasmid (human) and p53 HDR plasmid (human) were purchased from Santa Cruz Company to construct H460 P53 KO cell lines, namely p53 knockout H460 cell lines. Three groups of H460 P53 KO cell lines were constructed and designated as H460 P53 KO # 1, H460 P53 KO # 7, and H460 P53 KO # 12.\n(§5) The process for constructing p53 gene knockout cells is briefly described as follows: • H460 cells were plated in 6-well plates with 1 × 10^6 cells/well. • H460 cells were co-transfected with p53 CRISPR/Cas9 KO plasmid (h) (sc-416469) and p53 HDR plasmid (h) (sc-416469-HDR): 125 µL Opti-MEM + 1.25 µg each of the two plasmids + 5 µL P3000; 125 µL Opti-MEM + 15 µL liposome 3000 (increase volume, expected to increase transfection efficiency); they were co-incubated for 15 minutes, and then were added dropwise to the culture medium and mixed well.\n(§6) After 48 h, 2 µg/mL puromycin was added for screening.\n(§7) Two days later, the medium was replaced with fresh 1640 medium containing 1 µg/mL puromycin, and the medium was changed every two days.\n(§8) When the cell colonies grew to a sufficient size, single colonies were picked and cultured.\n(§9) When the cell number is sufficient, samples were collected for WB identification of the colonies. Colonies with no p53 expression were the p53 knockout H460 cell clones.\n(§10) For the experimental procedures of this Example, please refer to the Experimental Procedure Overview in the section \"Effects of compounds on in vitro H460 cell proliferation under normoxia\" in Example 18.\n(§11) Monotherapy: Compounds AST-3424/AST were separately administered in H460 and H460 P53 KO cell lines, respectively.\n(§12) Combination therapy: Compounds AST-3424/AST were respectively used in combination with AST-3021, and respectively administeredin H460 and H460 P53 KO cell lines.\n(§13) H460 P53 KO cell lines, i.e. H460 P53 KO # 1, H460 P53 KO # 7, H460 P53 KO # 12 cell lines, were used in experiments, respectively."}, "H460 P53 KO #12": {"test_system": "H460 P53 KO #12", "test": "In vitro proliferation under normoxia (CTG, 72 hours), Example 26", "type": "cell-based, human", "settings": "Table 21", "experimental": "as §1, §2, §3, §4, §5, §6, §7, §8, §9, §10, §11, §12, §13"}, "H460 P53 KO #1": {"test_system": "H460 P53 KO #1", "test": "In vitro proliferation under normoxia (CTG, 72 hours), Example 26", "type": "cell-based, human", "settings": "Table 21", "experimental": "as §1, §2, §3, §4, §5, §6, §7, §8, §9, §10, §11, §12, §13"}}, "data": [{"smiles": "C[C@H](OP(=O)(N1CC1)N1CC1)c1ccc([N+](=O)[O-])c(Oc2cccc(C(=O)N(C)C)c2)c1", "note": "[AST-3424]", "values": [{"measurement": "level of γH2AX protein", "setting": "[1]", "value": "upregulate"}, {"measurement": "IC50", "setting": "H460 P53 KO #7; Homo sapiens, NCI-H460, H460 P53 KO # 7, AST-3424 alone or + 3 µM AST-3021", "value": 0.0231, "unit": "µM"}, {"measurement": "Ratio (monotherapy), knockout/wild", "setting": "H460 P53 KO #7; IC50 in H460 P53 KO # 7 / H460 WT", "value": 100.43}, {"measurement": "IC50", "setting": "H460 P53 KO #12; Homo sapiens, NCI-H460, H460 P53 KO # 12, AST-3424 alone or + 3 µM AST-3021", "value": 0.00199, "unit": "µM"}, {"measurement": "Ratio (monotherapy), knockout/wild", "setting": "H460 P53 KO #12; IC50 in H460 P53 KO # 12 / H460 WT", "value": 8.65}, {"measurement": "IC50", "setting": "H460 P53 KO #1; Homo sapiens, NCI-H460, H460 P53 KO # 1, AST-3424 alone or + 3 µM AST-3021", "value": 0.0113, "unit": "µM"}, {"measurement": "Ratio (monotherapy), knockout/wild", "setting": "H460 P53 KO #1; IC50 in H460 P53 KO # 1 / H460 WT", "value": 49.13}]}]}
